Laboratory results from article PMC7955072 (Nature Communications, 2021).
“Also recorded” adds a separate entry of the source.

Legend:
full-length ScIleRS = full-length ScIleRS (Saccharomyces cerevisiae, UniProt P09436); assay: Fluorescence-based thermal shift assay (TSA), full-length ScIleRS wild-type; assay type: binding; conditions: for △Tm: Wild-type, difference between Tm with and without ligands; for increase of Tm value of ScIleRS: single ligand (50 μM RM-A, 2 mM L-isoleucine, 2 mM ATP or 50 μM Ile-AMS), Tm without ligand approximately 54 °C
Chain of full-length ScIleRS (P09436 whole entry): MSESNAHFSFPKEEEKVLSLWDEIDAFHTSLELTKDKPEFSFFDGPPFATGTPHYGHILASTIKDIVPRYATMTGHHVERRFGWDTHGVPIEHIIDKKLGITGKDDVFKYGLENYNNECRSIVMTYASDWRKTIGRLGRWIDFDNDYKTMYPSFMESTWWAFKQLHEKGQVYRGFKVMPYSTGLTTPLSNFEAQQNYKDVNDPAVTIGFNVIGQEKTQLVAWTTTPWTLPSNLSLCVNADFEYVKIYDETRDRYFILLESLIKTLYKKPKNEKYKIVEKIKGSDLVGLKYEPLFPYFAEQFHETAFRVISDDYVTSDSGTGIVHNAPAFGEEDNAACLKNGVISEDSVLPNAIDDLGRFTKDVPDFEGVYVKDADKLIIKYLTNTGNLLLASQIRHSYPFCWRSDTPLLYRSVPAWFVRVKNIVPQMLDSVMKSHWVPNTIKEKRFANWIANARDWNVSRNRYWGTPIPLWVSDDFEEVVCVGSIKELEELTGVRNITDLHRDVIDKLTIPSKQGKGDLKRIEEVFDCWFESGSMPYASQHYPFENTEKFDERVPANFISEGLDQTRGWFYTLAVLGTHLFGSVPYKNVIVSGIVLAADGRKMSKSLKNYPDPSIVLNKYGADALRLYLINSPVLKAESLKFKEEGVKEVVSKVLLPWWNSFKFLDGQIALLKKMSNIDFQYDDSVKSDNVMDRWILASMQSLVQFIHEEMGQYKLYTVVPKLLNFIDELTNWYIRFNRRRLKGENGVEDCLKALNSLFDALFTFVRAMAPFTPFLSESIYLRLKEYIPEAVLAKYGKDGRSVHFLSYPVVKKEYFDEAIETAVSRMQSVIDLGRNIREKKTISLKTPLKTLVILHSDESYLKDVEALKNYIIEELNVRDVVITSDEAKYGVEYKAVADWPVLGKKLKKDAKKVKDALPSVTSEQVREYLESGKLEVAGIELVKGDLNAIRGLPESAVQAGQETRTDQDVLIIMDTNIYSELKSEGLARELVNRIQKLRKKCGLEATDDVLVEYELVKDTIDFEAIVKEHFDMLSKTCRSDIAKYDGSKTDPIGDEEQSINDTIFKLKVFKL
Experimental: (§1) Ligand binding usually stabilizes the protein during the thermal denaturation process, and tighter binding usually causes a larger positive shift in the protein melting temperature (Tm)[45]. […] The fluorescence intensity was recorded by a StepOnePlus Real-Time PCR instrument (Life Technologies), and the maximums of the first derivatives were determined to calculate Tm values. Each Tm value was an average of triple assays.

ScIleRS D527A = ScIleRS D527A (Saccharomyces cerevisiae, UniProt P09436, D527A); assay type: binding
Chain of ScIleRS D527A (P09436 whole entry D527A): as the sequence (P09436 whole entry) above, with D527A counted along it
Experimental: as §1

ScIleRS T572A = ScIleRS T572A (Saccharomyces cerevisiae, UniProt P09436, T572A); assay type: binding
Chain of ScIleRS T572A (P09436 whole entry T572A): as the sequence (P09436 whole entry) above, with T572A counted along it
Experimental: as §1

ScIleRS P90A = ScIleRS P90A (Saccharomyces cerevisiae, UniProt P09436, P90A); assay type: binding
Chain of ScIleRS P90A (P09436 whole entry P90A): as the sequence (P09436 whole entry) above, with P90A counted along it
Experimental: as §1

ScIleRS W529A = ScIleRS W529A (Saccharomyces cerevisiae, UniProt P09436, W529A); assay type: binding
Chain of ScIleRS W529A (P09436 whole entry W529A): as the sequence (P09436 whole entry) above, with W529A counted along it
Experimental: as §1

ScIleRS R460A = ScIleRS R460A (Saccharomyces cerevisiae, UniProt P09436, R460A); assay type: binding
Chain of ScIleRS R460A (P09436 whole entry R460A): as the sequence (P09436 whole entry) above, with R460A counted along it
Experimental: as §1

ScIleRS Y571A = ScIleRS Y571A (Saccharomyces cerevisiae, UniProt P09436, Y571A); assay type: binding
Chain of ScIleRS Y571A (P09436 whole entry Y571A): as the sequence (P09436 whole entry) above, with Y571A counted along it
Experimental: as §1

ScIleRS F48Y = ScIleRS F48Y (Saccharomyces cerevisiae, UniProt P09436, F48Y); assay type: binding
Chain of ScIleRS F48Y (P09436 whole entry F48Y): as the sequence (P09436 whole entry) above, with F48Y counted along it
Experimental: as §1

ScIleRS W402A = ScIleRS W402A (Saccharomyces cerevisiae, UniProt P09436, W402A); assay type: binding
Chain of ScIleRS W402A (P09436 whole entry W402A): as the sequence (P09436 whole entry) above, with W402A counted along it
Experimental: as §1

ScIleRS R462A = ScIleRS R462A (Saccharomyces cerevisiae, UniProt P09436, R462A); assay type: binding
Chain of ScIleRS R462A (P09436 whole entry R462A): as the sequence (P09436 whole entry) above, with R462A counted along it
Experimental: as §1

ScIleRS F48A = ScIleRS F48A (Saccharomyces cerevisiae, UniProt P09436, F48A); assay type: binding
Chain of ScIleRS F48A (P09436 whole entry F48A): as the sequence (P09436 whole entry) above, with F48A counted along it
Experimental: as §1

ScIleRS R454A = ScIleRS R454A (Saccharomyces cerevisiae, UniProt P09436, R454A); assay type: binding
Chain of ScIleRS R454A (P09436 whole entry R454A): as the sequence (P09436 whole entry) above, with R454A counted along it
Experimental: as §1

ScIleRS W456A = ScIleRS W456A (Saccharomyces cerevisiae, UniProt P09436, W456A); assay type: binding
Chain of ScIleRS W456A (P09436 whole entry W456A): as the sequence (P09436 whole entry) above, with W456A counted along it
Experimental: as §1

ScIleRS V89A = ScIleRS V89A (Saccharomyces cerevisiae, UniProt P09436, V89A); assay type: binding
Chain of ScIleRS V89A (P09436 whole entry V89A): as the sequence (P09436 whole entry) above, with V89A counted along it
Experimental: as §1

ScIleRS F191A = ScIleRS F191A (Saccharomyces cerevisiae, UniProt P09436, F191A); assay type: binding
Chain of ScIleRS F191A (P09436 whole entry F191A): as the sequence (P09436 whole entry) above, with F191A counted along it
Experimental: as §1

ScIleRS W449A = ScIleRS W449A (Saccharomyces cerevisiae, UniProt P09436, W449A); assay type: binding
Chain of ScIleRS W449A (P09436 whole entry W449A): as the sequence (P09436 whole entry) above, with W449A counted along it
Experimental: as §1

ScIleRS del_KMSKS = ScIleRS del_KMSKS (Saccharomyces cerevisiae, UniProt P09436, DEL601-605/K608S/L607G); assay type: binding
Chain of ScIleRS del_KMSKS (P09436 other isoform, or with tags, fused parts or gaps DEL601-605/L607G/K608S): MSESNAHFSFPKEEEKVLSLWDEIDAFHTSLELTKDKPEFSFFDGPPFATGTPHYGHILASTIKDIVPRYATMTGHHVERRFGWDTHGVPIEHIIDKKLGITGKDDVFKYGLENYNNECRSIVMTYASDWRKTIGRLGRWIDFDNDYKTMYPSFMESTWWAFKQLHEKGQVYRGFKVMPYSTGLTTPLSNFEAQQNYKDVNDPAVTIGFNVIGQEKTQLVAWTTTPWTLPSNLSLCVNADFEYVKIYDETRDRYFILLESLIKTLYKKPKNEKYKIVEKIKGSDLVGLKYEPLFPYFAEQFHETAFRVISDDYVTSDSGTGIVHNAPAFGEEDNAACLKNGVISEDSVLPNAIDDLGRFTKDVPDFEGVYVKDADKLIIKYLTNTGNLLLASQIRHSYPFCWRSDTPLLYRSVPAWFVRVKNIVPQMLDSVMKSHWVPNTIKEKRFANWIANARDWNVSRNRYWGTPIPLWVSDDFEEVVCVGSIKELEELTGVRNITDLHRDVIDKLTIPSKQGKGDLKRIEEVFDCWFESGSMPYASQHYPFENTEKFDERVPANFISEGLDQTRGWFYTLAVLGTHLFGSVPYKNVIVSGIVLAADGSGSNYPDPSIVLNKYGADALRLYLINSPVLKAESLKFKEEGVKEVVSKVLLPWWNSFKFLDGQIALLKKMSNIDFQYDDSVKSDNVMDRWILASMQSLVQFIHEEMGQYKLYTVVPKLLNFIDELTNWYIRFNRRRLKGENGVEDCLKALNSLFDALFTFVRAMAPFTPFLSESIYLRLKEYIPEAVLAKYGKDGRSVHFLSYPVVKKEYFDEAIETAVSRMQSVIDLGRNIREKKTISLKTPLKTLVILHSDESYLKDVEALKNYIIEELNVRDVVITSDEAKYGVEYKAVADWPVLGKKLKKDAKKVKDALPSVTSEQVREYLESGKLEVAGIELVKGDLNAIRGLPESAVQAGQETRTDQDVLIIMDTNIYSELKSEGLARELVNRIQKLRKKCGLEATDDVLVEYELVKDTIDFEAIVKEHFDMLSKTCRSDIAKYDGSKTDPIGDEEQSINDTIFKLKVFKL
Experimental: as §1

[1] = biological target: C-terminal truncated ScIleRS (residues 1-984) (Saccharomyces cerevisiae, UniProt P09436); assay: Fluorescence-based thermal shift assay (TSA), C-terminal truncated ScIleRS; assay type: binding; conditions: protein bound with copurified Ile-AMP
Chain of C-terminal truncated ScIleRS (residues 1-984) (P09436 1-984): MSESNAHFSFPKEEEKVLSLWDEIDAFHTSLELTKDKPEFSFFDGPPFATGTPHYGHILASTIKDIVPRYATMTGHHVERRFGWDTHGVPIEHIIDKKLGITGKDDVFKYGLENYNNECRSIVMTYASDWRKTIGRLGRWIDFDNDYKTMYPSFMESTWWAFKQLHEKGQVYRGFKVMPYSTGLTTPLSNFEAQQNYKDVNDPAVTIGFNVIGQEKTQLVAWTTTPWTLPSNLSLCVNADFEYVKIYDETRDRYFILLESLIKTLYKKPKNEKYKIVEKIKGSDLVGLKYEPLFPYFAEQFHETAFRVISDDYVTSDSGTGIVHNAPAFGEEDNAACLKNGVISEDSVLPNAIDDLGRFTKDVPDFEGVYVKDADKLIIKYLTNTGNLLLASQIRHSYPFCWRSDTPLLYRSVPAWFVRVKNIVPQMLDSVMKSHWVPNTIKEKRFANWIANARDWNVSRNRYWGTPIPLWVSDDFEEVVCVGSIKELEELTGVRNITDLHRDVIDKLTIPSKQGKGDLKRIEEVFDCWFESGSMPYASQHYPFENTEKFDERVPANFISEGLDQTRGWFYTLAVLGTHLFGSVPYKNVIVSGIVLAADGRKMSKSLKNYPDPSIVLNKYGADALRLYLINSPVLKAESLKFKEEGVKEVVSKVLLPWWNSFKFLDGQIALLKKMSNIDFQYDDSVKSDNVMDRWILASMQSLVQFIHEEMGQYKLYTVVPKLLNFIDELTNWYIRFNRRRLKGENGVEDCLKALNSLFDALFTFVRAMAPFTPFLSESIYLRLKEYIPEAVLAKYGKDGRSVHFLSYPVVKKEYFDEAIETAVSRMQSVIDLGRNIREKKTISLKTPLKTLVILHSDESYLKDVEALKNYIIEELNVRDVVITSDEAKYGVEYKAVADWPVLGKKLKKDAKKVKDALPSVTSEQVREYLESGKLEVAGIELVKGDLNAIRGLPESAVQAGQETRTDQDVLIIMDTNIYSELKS
Experimental: The binding of RM-A to IleRS and the impact of intermediate analogue (Ile-AMS, MedChemExpress) or substrates on binding were evaluated by the fluorescence-based thermal shift assay (TSA). Ligand binding usually stabilizes the protein during the thermal denaturation process, and tighter binding usually causes a larger positive shift in the protein melting temperature (Tm)[45]. […]. The mixtures were incubated at 25 °C for 10 min and then heated from 25 °C to 95 °C at a rate of 1 °C/min. The fluorescence intensity was recorded by a StepOnePlus Real-Time PCR instrument (Life Technologies), and the maximums of the first derivatives were determined to calculate Tm values. Each Tm value was an average of triple assays.

IleRS = conditions: cited from earlier work

Row | Compound | △Tm (full-length ScIleRS) | increase of Tm value of ScIleRS (full-length ScIleRS) | △Tm (ScIleRS D527A) | △Tm (ScIleRS T572A) | △Tm (ScIleRS P90A) | △Tm (ScIleRS W529A) | △Tm (ScIleRS R460A) | △Tm (ScIleRS Y571A) | △Tm (ScIleRS F48Y) | △Tm (ScIleRS W402A) | △Tm (ScIleRS R462A) | △Tm (ScIleRS F48A) | △Tm (ScIleRS R454A) | △Tm (ScIleRS W456A) | △Tm (ScIleRS V89A) | △Tm (ScIleRS F191A) | △Tm (ScIleRS W449A) | △Tm (ScIleRS del_KMSKS) | Tm value of C-terminal truncated ScIleRS [1] | also measured
1 | CC[C@H](C)[C@H](N)C(=O)NS(=O)(=O)OC[C@H]1O[C@@H](n2cnc3c(N)ncnc32)[C@H](O)[C@@H]1O [Ile-AMS] | 23.4 °C | ~23 °C | 24.2 °C | 22.7 °C | 22.1 °C | 18.4 °C | 25.7 °C | 24.6 °C | 21.6 °C | 24.2 °C | 26 °C | 12.5 °C | 21.6 °C | 18.8 °C | 24.7 °C | 26.5 °C | 24.9 °C | 20.2 °C | – | –
2 | CC[C@H](C)[C@H](N)C(=O)O [L-isoleucine] | 7.9 °C | ~8 °C | 5.2 °C | 4.8 °C | 6.4 °C | 1.9 °C | 3.1 °C | 4 °C | 4.4 °C | 6.9 °C | 4 °C | 0.2 °C | 6.6 °C | 0.7 °C | 4.7 °C | 8.3 °C | 7.8 °C | 8.5 °C | not improved | –
3 | CC(/C=C/[C@H](O)[C@@H](C)/C=C/C(=O)O)=C\C[C@H]1O[C@@]2(CC[C@H](C)[C@H](/C=C/C(C)=C/C(=O)O)O2)CC[C@@H]1C [SF-A, Spirofungin A] | – | – | – | – | – | – | – | – | – | – | – | – | – | – | – | – | – | – | – | inhibition of IleRS (IleRS): only weakly inhibit
4 | reveromycin T [RM-T] | – | – | – | – | – | – | – | – | – | – | – | – | – | – | – | – | – | – | – | inhibitory activity against IleRS compared with RM-A (IleRS): stronger inhibitory activity; also recorded: even higher inhibitory activity
5 | Nc1ncnc2c1ncn2[C@@H]1O[C@H](COP(=O)(O)OP(=O)(O)OP(=O)(O)O)[C@@H](O)[C@H]1O [ATP] | – | approximately 4 °C | – | – | – | – | – | – | – | – | – | – | – | – | – | – | – | – | not improved | –
